Calls of active or inactive are those of the source.
Key:
[1] = molecular target: Voltage-dependent T-type calcium channel subunit alpha-1H (Homo sapiens, UniProt O95180); format: functional;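 note: channel activity triggered by adding a high calcium stimulation buffer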
[2] = molecular target: Multidrug resistance protein CDR1 (Candida albicans, UniProt P43071); assay: CaCDR1 efflux pump inhibitors in yeast, dose response, S. cerevisiae AD1-8u, singleplex, Cherry Pick1 hits (AID 588606); format: functional
Insulin-degrading enzyme [3] = molecular target: T1, Insulin-degrading enzyme (Homo sapiens, UniProt P14735); assay: activators of recombinant IDE enzyme, dose response, counter-screen for IDE activator project, biochemical, fluorescence polarization (AID 588681)
Insulin-degrading enzyme [4] = molecular target: T1, Insulin-degrading enzyme; assay: activators of endogenous IDE in HEK cells, dose response, cell-based, fluorescence polarization (AID 588439); format: functional
HEK293 [5] = assay: HEK cell cytotoxicity by LDH release, dose response, cytotoxicity control for IDE activator project, fluorescence, HEK cells (AID 588440); format: functional, cell-based; settings: Homo sapiens;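 note: cytotoxicity by LDH release measuring loss of membrane integrity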
HEK293 [6] = assay: optical interference in Abeta FP readout, dose response, artefact control for IDE activator project, biochemical, fluorescence polarization (AID 588442); format: functional, cell-based; settings: Homo sapiens
[7] = molecular target: Protein disulfide-isomerase (Homo sapiens, UniProt P07237); assay: PDI inhibitors, insulin aggregation turbidity, dose response, biochemical, absorbance, cherry-picked samples (AID 602350); format: functional
[8] = polyadenylation inhibitors in yeast reporter, dose response, luminescence, S. cerevisiae SKY197-pL101 (AID 2525); format: functional, cell-based
Beta-lactamase [9] = molecular target: Beta-lactamase (Pseudomonas aeruginosa, UniProt Q79MP6);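 note: biochemical dose-response test of metallo-beta-lactamase enzyme inhibition, read out by epi-absorbance; purified recombinant IMP-1 metallo-beta-lactamase with nitrocefin as substrate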
[10] = Luminescence Cell-Based Dose Confirmation HTS to Identify Inhibitors of Polyadenylation.; format: functional
Beta-lactamase [11] = molecular target: Beta-lactamase (Salmonella choleraesuis (strain SC-B67), UniProt Q5J463)
[12] = molecular target: 26S proteasome non-ATPase regulatory subunit 14 (Homo sapiens, UniProt O00487); assay: inhibition of proteasome subunit RPN11 – biochemical, fluorescence polarization, uHTS hits, confirmation (AID 602368); format: functional
[13] = molecular target: 72 kDa type IV collagenase (Homo sapiens, UniProt P08253); assay: Dose Response validation of uHTS RPN11 inhibitor hits using a MMP-2 Fluorescence assay.; format: functional
Prothrombin = Prothrombin (Bos taurus, UniProt P00735); assay: thrombin inhibition, dose response, biochemical, fluorescence polarization, uHTS hits (AID 602369); format: functional
[14] = viability loss in Mcl1-dependent HMC-1-8 cells, dose response, selectivity assay for A1 inhibitor project, cell-based, luminescence, dry powder (AID 504415); format: functional; settings: Homo sapiens
[15] = molecular target: DNA dC->dU-editing enzyme APOBEC-3G (Homo sapiens, UniProt Q9HC16); assay: APOBEC3G deaminase inhibitors, SAR follow-up, biochemical, fluorescence, single-stranded DNA substrate (AID 602136); format: functional; settings: read-out: IC50_Mean
[16] = molecular target: DNA dC->dU-editing enzyme APOBEC-3A (Homo sapiens, UniProt P31941); assay: SAR analysis of small molecule inhibitors of APOBEC3A DNA Deaminase via a fluorescence-based single-stranded DNA deaminase assay.; format: functional; settings: read-out: IC50_Mean
[17] = molecular target: T2, Apoptotic protease-activating factor 1 (Homo sapiens, UniProt O14727); assay: SAR analysis of small molecule inhibitors of Apaf-1 in a Fluorescent assay.; format: functional; settings: read-out: IC50_Mean
T2 sequence (O14727 whole entry): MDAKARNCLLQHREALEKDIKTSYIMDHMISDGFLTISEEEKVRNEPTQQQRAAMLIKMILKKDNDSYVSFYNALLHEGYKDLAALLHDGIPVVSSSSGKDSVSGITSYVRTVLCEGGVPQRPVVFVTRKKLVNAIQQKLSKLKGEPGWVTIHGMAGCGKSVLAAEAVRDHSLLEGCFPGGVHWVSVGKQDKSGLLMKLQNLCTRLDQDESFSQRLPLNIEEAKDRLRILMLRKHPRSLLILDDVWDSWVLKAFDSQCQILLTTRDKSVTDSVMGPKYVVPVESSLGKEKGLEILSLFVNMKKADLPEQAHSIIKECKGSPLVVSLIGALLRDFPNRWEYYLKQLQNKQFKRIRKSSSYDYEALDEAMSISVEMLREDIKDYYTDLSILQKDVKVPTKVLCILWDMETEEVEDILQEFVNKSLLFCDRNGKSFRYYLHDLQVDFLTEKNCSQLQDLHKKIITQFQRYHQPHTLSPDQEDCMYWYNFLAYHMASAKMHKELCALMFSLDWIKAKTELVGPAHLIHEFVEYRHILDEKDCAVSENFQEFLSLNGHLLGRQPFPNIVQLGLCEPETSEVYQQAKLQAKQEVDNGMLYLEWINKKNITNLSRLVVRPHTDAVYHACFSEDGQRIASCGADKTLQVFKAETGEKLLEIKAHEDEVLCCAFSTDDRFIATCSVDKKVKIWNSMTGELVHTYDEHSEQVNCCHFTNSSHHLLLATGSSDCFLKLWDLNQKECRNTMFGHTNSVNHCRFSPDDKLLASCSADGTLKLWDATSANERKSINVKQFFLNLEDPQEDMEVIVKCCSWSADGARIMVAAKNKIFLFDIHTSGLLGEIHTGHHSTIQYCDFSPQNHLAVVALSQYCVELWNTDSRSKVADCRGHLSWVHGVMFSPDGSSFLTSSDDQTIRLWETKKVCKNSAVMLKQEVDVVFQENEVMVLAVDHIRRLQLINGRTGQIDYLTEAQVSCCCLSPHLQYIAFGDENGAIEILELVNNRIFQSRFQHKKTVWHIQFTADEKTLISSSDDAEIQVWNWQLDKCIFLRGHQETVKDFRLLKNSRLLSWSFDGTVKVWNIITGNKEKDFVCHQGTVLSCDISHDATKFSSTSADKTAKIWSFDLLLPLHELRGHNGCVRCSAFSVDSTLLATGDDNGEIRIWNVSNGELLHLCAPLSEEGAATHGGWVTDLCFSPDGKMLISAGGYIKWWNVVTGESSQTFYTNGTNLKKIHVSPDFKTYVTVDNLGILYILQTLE

[18] = molecular target: ALK tyrosine kinase receptor (Homo sapiens, UniProt Q9UM73); format: functional;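 note: ALK tested as one member of a kinase panel screen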
[19] = molecular target: Tyrosine-protein kinase Lck (Homo sapiens, UniProt P06239); format: functional;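 note: lck was assayed as one member of a kinase panel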
[20] = molecular target: Tyrosine-protein kinase BTK (Homo sapiens, UniProt Q06187); format: functional
[21] = molecular target: T3, Serine/threonine-protein kinase TAO1 (Homo sapiens, UniProt Q7L7X3); format: functional
T3 sequence (Q7L7X3 whole entry): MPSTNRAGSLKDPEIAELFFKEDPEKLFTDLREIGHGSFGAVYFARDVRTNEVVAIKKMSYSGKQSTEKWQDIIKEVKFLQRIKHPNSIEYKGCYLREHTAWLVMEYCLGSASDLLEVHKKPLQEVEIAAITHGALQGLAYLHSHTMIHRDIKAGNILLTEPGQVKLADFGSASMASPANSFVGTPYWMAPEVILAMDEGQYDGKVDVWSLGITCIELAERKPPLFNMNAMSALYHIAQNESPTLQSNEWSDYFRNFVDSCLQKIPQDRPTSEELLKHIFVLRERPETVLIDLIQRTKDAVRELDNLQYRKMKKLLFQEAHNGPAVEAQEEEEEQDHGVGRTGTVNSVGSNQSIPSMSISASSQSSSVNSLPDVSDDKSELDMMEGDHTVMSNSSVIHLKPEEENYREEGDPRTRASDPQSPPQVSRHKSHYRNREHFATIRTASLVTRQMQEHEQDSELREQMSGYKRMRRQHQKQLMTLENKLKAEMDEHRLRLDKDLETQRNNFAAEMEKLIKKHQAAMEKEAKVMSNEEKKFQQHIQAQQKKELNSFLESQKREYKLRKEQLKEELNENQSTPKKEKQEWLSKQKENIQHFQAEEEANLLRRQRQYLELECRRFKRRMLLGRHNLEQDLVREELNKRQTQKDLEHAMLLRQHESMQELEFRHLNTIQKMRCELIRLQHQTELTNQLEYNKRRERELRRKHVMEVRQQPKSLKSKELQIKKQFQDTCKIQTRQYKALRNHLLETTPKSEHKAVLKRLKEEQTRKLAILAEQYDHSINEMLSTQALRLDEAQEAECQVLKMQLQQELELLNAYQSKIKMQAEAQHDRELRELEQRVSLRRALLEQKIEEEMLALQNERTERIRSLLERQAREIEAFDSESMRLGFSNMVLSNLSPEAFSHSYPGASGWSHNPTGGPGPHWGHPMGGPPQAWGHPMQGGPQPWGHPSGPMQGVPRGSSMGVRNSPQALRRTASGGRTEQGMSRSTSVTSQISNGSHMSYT

Focal adhesion kinase 1 = Focal adhesion kinase 1 (Homo sapiens, UniProt Q05397); format: functional;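 note: measured as one member of a kinome panel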
[22] = molecular target: Tyrosine-protein kinase Fyn (Homo sapiens, UniProt P06241); format: functional
[23] = molecular target: Calcium/calmodulin-dependent protein kinase type II subunit alpha (Homo sapiens, UniProt Q9UQM7); assay: Navigating the Kinome. Panel member name: CAMK2A; format: functional
[24] = molecular target: Mitogen-activated protein kinase 14 (Homo sapiens, UniProt Q16539); format: functional;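 note: part of a kinome-wide panel, MAPK14 entry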

T1 sequence (P14735 whole entry): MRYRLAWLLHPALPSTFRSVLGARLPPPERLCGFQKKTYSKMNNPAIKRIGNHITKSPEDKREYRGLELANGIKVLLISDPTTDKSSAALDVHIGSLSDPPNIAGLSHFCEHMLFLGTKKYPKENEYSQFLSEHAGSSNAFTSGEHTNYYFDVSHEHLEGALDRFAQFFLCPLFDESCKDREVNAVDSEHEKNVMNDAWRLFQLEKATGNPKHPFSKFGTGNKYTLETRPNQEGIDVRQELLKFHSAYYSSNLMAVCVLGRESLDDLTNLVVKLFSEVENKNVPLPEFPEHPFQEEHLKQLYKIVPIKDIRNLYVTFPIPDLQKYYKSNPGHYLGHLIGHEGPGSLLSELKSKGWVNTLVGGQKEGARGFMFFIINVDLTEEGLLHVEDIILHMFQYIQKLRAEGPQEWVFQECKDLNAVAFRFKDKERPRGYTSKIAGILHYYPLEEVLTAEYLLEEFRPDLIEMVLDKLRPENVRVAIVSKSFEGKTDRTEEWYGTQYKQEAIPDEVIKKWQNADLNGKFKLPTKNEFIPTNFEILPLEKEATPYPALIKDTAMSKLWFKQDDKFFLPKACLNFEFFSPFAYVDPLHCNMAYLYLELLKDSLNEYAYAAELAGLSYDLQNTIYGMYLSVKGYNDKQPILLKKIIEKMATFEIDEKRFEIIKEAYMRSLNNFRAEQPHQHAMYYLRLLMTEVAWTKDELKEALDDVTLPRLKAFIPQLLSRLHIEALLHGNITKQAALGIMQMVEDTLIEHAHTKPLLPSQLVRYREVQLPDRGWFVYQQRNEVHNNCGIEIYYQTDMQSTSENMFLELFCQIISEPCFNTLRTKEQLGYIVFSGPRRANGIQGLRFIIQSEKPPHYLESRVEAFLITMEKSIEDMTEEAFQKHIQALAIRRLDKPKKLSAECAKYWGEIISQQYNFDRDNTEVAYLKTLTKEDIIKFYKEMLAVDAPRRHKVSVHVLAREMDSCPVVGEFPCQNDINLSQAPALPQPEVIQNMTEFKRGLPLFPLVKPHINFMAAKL
72 kDa type IV collagenase, sequence (P08253 whole entry): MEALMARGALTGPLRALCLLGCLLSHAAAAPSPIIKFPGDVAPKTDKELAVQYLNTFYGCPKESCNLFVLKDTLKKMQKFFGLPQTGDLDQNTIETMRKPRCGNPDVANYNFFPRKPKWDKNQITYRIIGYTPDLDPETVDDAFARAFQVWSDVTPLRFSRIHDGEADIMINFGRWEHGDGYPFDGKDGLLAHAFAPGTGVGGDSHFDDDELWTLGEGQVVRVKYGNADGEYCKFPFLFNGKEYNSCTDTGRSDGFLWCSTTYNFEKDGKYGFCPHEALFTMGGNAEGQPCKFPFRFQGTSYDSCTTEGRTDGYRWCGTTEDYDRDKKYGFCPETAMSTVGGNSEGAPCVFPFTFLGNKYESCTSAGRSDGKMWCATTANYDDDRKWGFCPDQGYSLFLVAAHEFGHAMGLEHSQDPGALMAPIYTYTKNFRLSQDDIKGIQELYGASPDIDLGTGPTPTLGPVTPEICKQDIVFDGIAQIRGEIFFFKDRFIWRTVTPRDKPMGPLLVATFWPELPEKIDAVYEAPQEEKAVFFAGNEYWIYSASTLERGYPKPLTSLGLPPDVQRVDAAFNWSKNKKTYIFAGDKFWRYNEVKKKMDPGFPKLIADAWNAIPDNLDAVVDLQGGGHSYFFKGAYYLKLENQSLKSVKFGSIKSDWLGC
Beta-lactamase (Pseudomonas aeruginosa, UniProt Q79MP6), sequence (Q79MP6 whole entry): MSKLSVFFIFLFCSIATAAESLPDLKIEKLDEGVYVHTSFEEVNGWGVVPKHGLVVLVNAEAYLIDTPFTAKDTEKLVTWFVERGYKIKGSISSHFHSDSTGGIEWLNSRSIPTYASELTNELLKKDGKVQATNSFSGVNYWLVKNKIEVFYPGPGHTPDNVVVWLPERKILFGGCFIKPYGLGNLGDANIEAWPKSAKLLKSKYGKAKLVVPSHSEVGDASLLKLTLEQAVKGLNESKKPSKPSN
ALK tyrosine kinase receptor, sequence (Q9UM73 whole entry): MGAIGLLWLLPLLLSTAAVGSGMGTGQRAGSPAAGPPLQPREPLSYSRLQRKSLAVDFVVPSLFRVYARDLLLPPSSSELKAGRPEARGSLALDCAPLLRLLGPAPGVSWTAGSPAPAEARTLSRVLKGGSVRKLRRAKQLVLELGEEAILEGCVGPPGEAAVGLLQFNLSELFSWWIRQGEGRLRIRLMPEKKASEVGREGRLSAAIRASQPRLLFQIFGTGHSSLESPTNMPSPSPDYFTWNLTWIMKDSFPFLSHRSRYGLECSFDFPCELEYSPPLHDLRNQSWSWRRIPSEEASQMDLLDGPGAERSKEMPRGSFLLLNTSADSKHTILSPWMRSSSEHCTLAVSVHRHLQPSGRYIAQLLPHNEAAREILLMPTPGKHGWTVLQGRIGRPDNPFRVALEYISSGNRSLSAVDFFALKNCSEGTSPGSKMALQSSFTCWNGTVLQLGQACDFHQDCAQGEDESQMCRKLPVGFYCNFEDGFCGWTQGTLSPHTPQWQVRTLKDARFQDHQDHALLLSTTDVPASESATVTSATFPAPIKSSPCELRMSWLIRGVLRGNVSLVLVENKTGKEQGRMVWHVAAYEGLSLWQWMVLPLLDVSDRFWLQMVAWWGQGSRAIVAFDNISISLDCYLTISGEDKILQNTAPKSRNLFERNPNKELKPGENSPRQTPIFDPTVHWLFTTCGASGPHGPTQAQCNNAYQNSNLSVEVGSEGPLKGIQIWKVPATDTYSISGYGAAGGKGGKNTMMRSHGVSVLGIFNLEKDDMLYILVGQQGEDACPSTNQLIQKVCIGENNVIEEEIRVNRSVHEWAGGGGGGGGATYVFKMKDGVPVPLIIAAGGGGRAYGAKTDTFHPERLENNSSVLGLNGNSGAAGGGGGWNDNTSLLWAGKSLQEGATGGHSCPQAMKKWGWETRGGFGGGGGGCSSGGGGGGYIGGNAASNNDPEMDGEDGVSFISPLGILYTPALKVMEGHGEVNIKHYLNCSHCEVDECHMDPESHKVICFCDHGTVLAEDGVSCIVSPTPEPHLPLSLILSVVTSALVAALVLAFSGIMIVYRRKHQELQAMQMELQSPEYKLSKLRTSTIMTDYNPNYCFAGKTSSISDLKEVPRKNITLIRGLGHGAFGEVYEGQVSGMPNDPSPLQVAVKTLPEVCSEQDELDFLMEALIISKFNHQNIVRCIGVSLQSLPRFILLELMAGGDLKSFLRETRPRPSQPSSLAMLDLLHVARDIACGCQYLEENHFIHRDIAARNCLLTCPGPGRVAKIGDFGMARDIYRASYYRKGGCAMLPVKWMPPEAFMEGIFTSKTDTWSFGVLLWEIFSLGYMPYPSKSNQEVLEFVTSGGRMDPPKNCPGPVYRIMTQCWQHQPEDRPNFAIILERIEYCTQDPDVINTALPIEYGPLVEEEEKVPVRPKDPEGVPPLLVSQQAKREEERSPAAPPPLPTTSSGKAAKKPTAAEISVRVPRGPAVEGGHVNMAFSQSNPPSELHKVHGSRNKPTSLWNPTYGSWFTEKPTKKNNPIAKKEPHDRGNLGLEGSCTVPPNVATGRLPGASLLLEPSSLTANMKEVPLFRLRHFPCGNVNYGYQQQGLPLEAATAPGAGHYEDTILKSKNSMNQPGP
DNA dC->dU-editing enzyme APOBEC-3G, sequence (Q9HC16 whole entry): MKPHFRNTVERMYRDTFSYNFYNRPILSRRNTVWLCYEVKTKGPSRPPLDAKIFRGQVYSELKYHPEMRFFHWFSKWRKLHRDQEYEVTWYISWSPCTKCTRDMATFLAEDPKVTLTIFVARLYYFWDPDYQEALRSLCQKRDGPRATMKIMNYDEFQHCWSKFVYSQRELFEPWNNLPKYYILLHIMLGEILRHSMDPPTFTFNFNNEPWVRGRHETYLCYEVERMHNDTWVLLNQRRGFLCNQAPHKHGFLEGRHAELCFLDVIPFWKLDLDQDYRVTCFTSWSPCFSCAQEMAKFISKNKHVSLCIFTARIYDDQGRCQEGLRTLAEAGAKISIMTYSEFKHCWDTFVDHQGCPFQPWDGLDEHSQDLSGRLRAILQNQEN
Focal adhesion kinase 1, sequence (Q05397 whole entry): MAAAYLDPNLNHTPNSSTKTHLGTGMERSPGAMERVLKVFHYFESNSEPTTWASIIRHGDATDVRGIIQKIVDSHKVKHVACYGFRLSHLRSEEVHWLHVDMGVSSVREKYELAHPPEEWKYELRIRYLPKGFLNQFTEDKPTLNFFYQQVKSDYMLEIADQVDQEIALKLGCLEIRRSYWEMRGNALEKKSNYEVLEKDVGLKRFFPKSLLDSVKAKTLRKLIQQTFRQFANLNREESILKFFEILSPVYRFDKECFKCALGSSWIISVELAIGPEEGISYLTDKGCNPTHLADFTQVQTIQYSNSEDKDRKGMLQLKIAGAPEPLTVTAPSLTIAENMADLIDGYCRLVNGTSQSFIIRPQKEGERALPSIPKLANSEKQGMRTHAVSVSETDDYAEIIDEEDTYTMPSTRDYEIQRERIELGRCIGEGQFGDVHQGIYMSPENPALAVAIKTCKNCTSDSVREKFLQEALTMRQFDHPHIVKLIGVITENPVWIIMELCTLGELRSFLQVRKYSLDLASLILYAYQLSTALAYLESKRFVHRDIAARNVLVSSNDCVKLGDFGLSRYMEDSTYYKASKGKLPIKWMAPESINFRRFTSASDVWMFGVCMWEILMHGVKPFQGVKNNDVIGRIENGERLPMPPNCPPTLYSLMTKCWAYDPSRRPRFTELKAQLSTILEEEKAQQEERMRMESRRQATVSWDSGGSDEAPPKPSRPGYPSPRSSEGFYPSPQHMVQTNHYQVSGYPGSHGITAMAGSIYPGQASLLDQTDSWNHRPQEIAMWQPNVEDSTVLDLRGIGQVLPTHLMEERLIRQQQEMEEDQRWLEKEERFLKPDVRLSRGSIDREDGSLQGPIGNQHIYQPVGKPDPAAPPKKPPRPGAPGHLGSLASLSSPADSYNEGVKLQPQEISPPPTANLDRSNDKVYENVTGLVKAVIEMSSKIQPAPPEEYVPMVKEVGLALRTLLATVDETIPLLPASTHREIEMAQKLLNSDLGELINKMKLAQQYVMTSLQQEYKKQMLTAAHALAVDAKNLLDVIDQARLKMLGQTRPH

O=C(CSc1nnc(Cc2cccs2)n1Cc1ccco1)Nc1ccc(Br)cc1
EC50 [1]: 3.12 µM (active) | EC50 [2]: 0.009 µM (active)

O=C(O)c1ccccc1Nc1ccc([N+](=O)[O-])c2nonc12
EC50 (Insulin-degrading enzyme [3]): > 54.7 µM (inactive) | EC50 (Insulin-degrading enzyme [4]): > 54.7 µM (inactive) | IC50 (HEK293 [5]): > 89.2 µM (inactive) | EC50 (HEK293 [6]): > 54.7 µM (inactive)

CCOC(=O)c1c(CNCCN(CC)CC)n(C)c2cc(Br)c(OC)cc12
AC50 [7]: 0.376 µM (active)

COc1cc(/C=C2/SC(=S)N(Cc3ccccc3)C2=O)cc(OC)c1O
EC50 [8]: 31.9 µM (active) | IC50 (Beta-lactamase [9]): > 59.6 µM (inactive) | EC50 [10]: 27.8 µM (inconclusive) | IC50 (Beta-lactamase [11]): > 59.6 µM (inactive) | IC50 [12]: 2.36 µM (active) | IC50 [13]: > 100 µM (inactive) | IC50 (Prothrombin): 2.9 µM (active)

O=[N+]([O-])c1cnc2ccccc2c1Sc1ccccc1
AC50 [14]: 39.2 µM (active)

CC(=O)c1c(C)[nH]c(C(=O)CN(C)CC(=O)Nc2ccc(F)c(F)c2F)c1C
IC50 [15]: > 99 µM (inactive) | IC50 [16]: > 99 µM (inactive)

Cn1cc(C(CC(=O)c2ccc(C3CCCCC3)cc2)C(=O)O)c2ccccc21 (stereo unspecified)
IC50 [17]: 69.6 µM (active)

CC(C)CC(CO)NC(=O)c1cccc(-n2nc(C(C)(C)C)cc2NC(=O)Nc2cccc3ccccc23)c1 (stereo unspecified)
Ki [18]: > 6.31 µM (inactive) | Ki [19]: > 6.31 µM (inactive) | Ki [20]: > 6.31 µM (inactive) | Ki [21]: > 6.31 µM (inactive) | Ki (Focal adhesion kinase 1): > 6.31 µM (inactive) | Ki [22]: > 6.31 µM (inactive) | Ki [23]: > 7.94 µM (inactive) | Ki [24]: 0.631 µM (active)
